From PubChem BioAssay (NCI)
Several values for one entry are separate records, joined by “and”; a condition that tells them apart may be missing. Equal values may be shown once.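 How tested: cells in 96-well plates exposed to compound for 48 hours at five concentrations. GI50 is the concentration that inhibits growth by half. Definition used: TGI = concentration required for complete inhibition of growth.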

Experiments:
Assay in all cases: NCI anticancer screen, dose series, 48 h
A498 renal = tested on: A498 renal
HCT-15 colon = tested on: HCT-15 colon
HOP-62 NSCLC = tested on: HOP-62 NSCLC
MOLT-4 leukemia = tested on: MOLT-4 leukemia
OVCAR-8 ovarian = tested on: OVCAR-8 ovarian
PC-3 prostate = tested on: PC-3 prostate
RXF 393 renal = tested on: RXF 393 renal
T-47D breast = tested on: T-47D breast
UACC-257 melanoma = tested on: UACC-257 melanoma
UACC-62 melanoma = tested on: UACC-62 melanoma

`O=C1C(c2c(O)[nH]c3ccc(S(=O)(=O)O)cc23)=Nc2ccccc21` was tested, and the TGI (A498 renal) was greater than 100 µM, the TGI (HCT-15 colon) was greater than 100 µM and the TGI (HOP-62 NSCLC) was greater than 100 µM. For the same compound, the TGI (MOLT-4 leukemia) was greater than 100 µM, the TGI (OVCAR-8 ovarian) was greater than 100 µM and the TGI (PC-3 prostate) was greater than 100 µM. It also gave a TGI (RXF 393 renal) greater than 100 µM, a TGI (T-47D breast) greater than 100 µM and a TGI (UACC-257 melanoma) greater than 100 µM. It also gave a TGI (UACC-62 melanoma) greater than 100 µM.
`Cc1cn2c(/C=C3/C(=O)Nc4cccc(Cl)c43)c(Cl)nc2s1` gave a TGI (A498 renal) greater than 100 µM, a TGI (HCT-15 colon) greater than 100 µM and a TGI (HOP-62 NSCLC) of 39.1 µM. For the same compound, the TGI (MOLT-4 leukemia) was greater than 100 µM, the TGI (OVCAR-8 ovarian) was greater than 100 µM and the TGI (PC-3 prostate) was greater than 100 µM. For the same compound, the TGI (RXF 393 renal) was 87 µM, the TGI (T-47D breast) was greater than 100 µM and the TGI (UACC-257 melanoma) was greater than 100 µM. The TGI (UACC-62 melanoma) was greater than 100 µM.
`CC1(C)C(c2ccccc2)=[N+]([O-])C(C)(C)N1O` showed a TGI (A498 renal) greater than 10 µM, a TGI (HCT-15 colon) greater than 10 µM and a TGI (HOP-62 NSCLC) greater than 10 µM. For the same compound, the TGI (MOLT-4 leukemia) was greater than 10 µM, the TGI (OVCAR-8 ovarian) was greater than 10 µM and the TGI (PC-3 prostate) was greater than 10 µM. For the same compound, the TGI (RXF 393 renal) was greater than 10 µM, the TGI (T-47D breast) was greater than 10 µM and the TGI (UACC-257 melanoma) was greater than 10 µM. The TGI (UACC-62 melanoma) was greater than 10 µM.
For `CC(=O)OC(C)c1cc2c(s1)C(=O)c1sccc1C2=O` (configuration not stated), the TGI (A498 renal) was 4.59 µM, the TGI (HCT-15 colon) was 2.38 µM and the TGI (HOP-62 NSCLC) was 2.65 µM. The TGI (MOLT-4 leukemia) was greater than 23.6 µM, the TGI (OVCAR-8 ovarian) was 4.66 µM and the TGI (PC-3 prostate) was 14.2 µM. It also gave a TGI (RXF 393 renal) of 3.27 µM, a TGI (T-47D breast) of 6.2 µM and a TGI (UACC-257 melanoma) of 0.441 µM. It also gave a GI50 (UACC-62 melanoma) of 1.38 µM and a TGI (UACC-62 melanoma) of 3.05 µM.
In the case of `C=C(C)CCC(=O)[C@](C)(O)[C@H]1[C@H](O)C[C@@]2(C)[C@@H]3CCc4c(cc(OC5OC(CO)C(O)C(O)C5O)c(O)c4C)C3(C)C(=O)C[C@]12C` (some centres not stated), the TGI (A498 renal) is reported as greater than 100 µM, the TGI (HCT-15 colon) is reported as greater than 100 µM and the TGI (HOP-62 NSCLC) is reported as greater than 100 µM. The TGI (MOLT-4 leukemia) was greater than 100 µM, the TGI (OVCAR-8 ovarian) was greater than 100 µM and the TGI (PC-3 prostate) was greater than 100 µM. For the same compound, the TGI (RXF 393 renal) was greater than 100 µM, the TGI (T-47D breast) was greater than 100 µM and the TGI (UACC-257 melanoma) was greater than 100 µM. For the same compound, the TGI (UACC-62 melanoma) was greater than 100 µM.
For `CC(C)=C[C@@H]1C[C@H](n2cc(C)c(=O)[nH]c2=O)ON1CCO`, the TGI (A498 renal) was greater than 100 µM, the TGI (HCT-15 colon) was greater than 100 µM and the TGI (HOP-62 NSCLC) was greater than 100 µM. For the same compound, the TGI (MOLT-4 leukemia) was greater than 100 µM, the TGI (OVCAR-8 ovarian) was greater than 100 µM and the TGI (PC-3 prostate) was greater than 100 µM. For the same compound, the TGI (RXF 393 renal) was greater than 100 µM, the TGI (T-47D breast) was greater than 100 µM and the TGI (UACC-257 melanoma) was greater than 100 µM. For the same compound, the TGI (UACC-62 melanoma) was greater than 100 µM.
`COC(=O)NN(C(=O)OC)c1c(-c2ccccc2)nc(SC)n1N` showed a TGI (A498 renal) greater than 100 µM, a TGI (HCT-15 colon) greater than 100 µM and a TGI (HOP-62 NSCLC) greater than 100 µM. The TGI (MOLT-4 leukemia) was greater than 100 µM, the TGI (OVCAR-8 ovarian) was greater than 100 µM and the TGI (PC-3 prostate) was greater than 100 µM. For the same compound, the TGI (RXF 393 renal) was greater than 100 µM, the TGI (T-47D breast) was greater than 100 µM and the TGI (UACC-257 melanoma) was greater than 100 µM. The TGI (UACC-62 melanoma) was greater than 100 µM.
For `C=C1C(=O)OC2/C=C(\CO)C(OC(C)=O)CC(O)/C(C)=C/C(OC(=O)C(C)CC)C12` (configuration not stated), the TGI (A498 renal) was 91.9 µM and 88.7 µM, the TGI (HCT-15 colon) was greater than 100 µM and the TGI (HOP-62 NSCLC) was greater than 100 µM. The GI50 (MOLT-4 leukemia) was 11 µM and 22.6 µM, the TGI (MOLT-4 leukemia) was 28.2 µM and 64.3 µM and the TGI (OVCAR-8 ovarian) was 36.4 µM and 52.1 µM. For the same compound, the TGI (PC-3 prostate) was greater than 100 µM, the TGI (RXF 393 renal) was 40 µM and 49.8 µM and the TGI (T-47D breast) was 30.7 µM. The TGI (UACC-257 melanoma) was 28.9 µM and 38.5 µM and the TGI (UACC-62 melanoma) was 32.3 µM and 38 µM.
